Laboratory results: patent publication US20240391862A1, “(1,4,5-TRISUBSTITUTED-1H-PYRAZOL-3-YL)OXY-2-ALKOXY ALKYL ACIDS AND THEIR DERIVATIVES, THEIR SALTS AND THEIR USE AS HERBICIDAL AGENTS” (Bayer AKtiengesellschaft, priority 2021, published 2024)

Legend:
DIGSA = assay: Post-emergence herbicidal effect, greenhouse pot test; format: in vivo, Digitaria sanguinalis; conditions: 320 g/ha, visual rating about 3 weeks after treatment
Outline: (§1)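 Weeds sown in sandy loam, greenhouse-grown 2–3 weeks, then sprayed at one-leaf stage with WP or EC formulations in water plus 0.5% additive at 600 l/ha. Rates 20 to 320 g/ha. Visual rating after about 3 weeks versus untreated controls (100% = plants dead, 0% = like control).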

VERPE = assay: as above; format: in vivo, Veronica persica
Outline: as §1

KCHSC = assay: as above; format: in vivo
Outline: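 Visual rating of activity against untreated plants (100% = plants died, 0% = no effect), done about 3 weeks after treatment. Compounds applied at 20–320 g/ha as aqueous spray (600 l/ha, 0.5% additive) from WP or EC formulations onto one-leaf-stage plants grown in sandy loam under greenhouse conditions.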

SETVI = assay: as above; format: in vivo, Setaria viridis
Outline: as §1

AMARE = assay: as above; format: in vivo, Amaranthus retroflexus; conditions: 320 g/ha, visual rating about 3 weeks after treatment
Outline: as §1

ALOMY = assay: as above; format: in vivo, Alopecurus myosuroides; conditions: 320 g/ha, visual rating about 3 weeks after treatment
Outline: as §1

POLCO = assay: as above; format: in vivo, Fallopia convolvulus
Outline: as §1

VIOTR = assay: as above; format: in vivo, Viola tricolor
Outline: as §1

PHBPU = assay: as above; format: in vivo, Ipomoea purpurea
Outline: as §1

LOLRI = assay: as above; format: in vivo, Lolium rigidum
Outline: as §1

MATIN = assay: as above; format: in vivo, Tripleurospermum inodorum
Outline: as §1

ECHCG = assay: as above; format: in vivo, Echinochloa crus-galli
Outline: as §1

ZEAMX = assay: Post-emergence herbicidal effect and crop plant compatibility, greenhouse pot test; format: in vivo, Zea mays; conditions: one-leaf stage, rated visually after about 3 weeks vs untreated controls
Outline: (§2)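 Visual % activity scored roughly 3 weeks post-spray against untreated plants, where 100% means death and 0% equals control. Plants were treated at the one-leaf stage, 2 to 3 weeks after sowing in sandy loam, at 20 to 320 g/ha.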

ABUTH = assay: Post-emergence herbicidal effect, greenhouse pot test; format: in vivo, Abutilon theophrasti; conditions: visual rating about 3 weeks after treatment
Outline: as §1

TRZAS = assay: Post-emergence herbicidal effect and crop plant compatibility, greenhouse pot test; format: in vivo, Triticum aestivum; conditions: 20 g/ha, one-leaf stage, rated visually after about 3 weeks vs untreated controls; for percent crop injury (phytotoxicity) to wheat, post-emergence at 20 g/ha: Triticum aestivum, 504 h, read-out: Post-emergence effect at 20 g/ha against TRZAS in %
Outline: as §2

AVEFA = assay: Post-emergence herbicidal effect, greenhouse pot test; format: in vivo, Avena fatua; conditions: visual rating about 3 weeks after treatment
Outline: as §1

COC(=O)C(OC)Oc1nn(-c2ccccc2F)c(-c2ccc(F)nc2)c1C1CC1 (centres unmarked) [Example I-71] showed a pest or weed control at 320 g/ha (DIGSA; Digitaria sanguinalis, 504 h, read-out: Post-emergence effect against DIGSA) of 90%, a pest or weed control at 80 g/ha (VERPE; Veronica persica, 504 h, 80 g/ha, read-out: Post-emergence effect against VERPE in %) of 90% and a pest or weed control at 320 g/ha (VERPE; Veronica persica, 504 h, 320 g/ha, read-out: Post-emergence effect against VERPE in %) of 90%. It also gave a pest or weed control at 80 g/ha (KCHSC; 504 h, 80 g/ha, read-out: Post-emergence effect against KCHSC in %) of 80%, a pest or weed control at 320 g/ha (KCHSC; 504 h, 320 g/ha, read-out: Post-emergence effect against KCHSC in %) of 90% and a pest or weed control at 80 g/ha (SETVI; Setaria viridis, 504 h, 80 g/ha, read-out: Post-emergence effect against SETVI in %) of 80%. The pest or weed control at 320 g/ha (SETVI; Setaria viridis, 504 h, 320 g/ha, read-out: Post-emergence effect against SETVI in %) was 90%, the pest or weed control at 320 g/ha (AMARE; Amaranthus retroflexus, 504 h, read-out: Post-emergence effect against AMARE) was 80% and the pest or weed control at 320 g/ha (ALOMY; Alopecurus myosuroides, 504 h, read-out: Post-emergence effect against ALOMY) was 90%. For the same compound, the pest or weed control at 80 g/ha (POLCO; Fallopia convolvulus, 504 h, 80 g/ha, read-out: Post-emergence effect against POLCO in %) was 80%, the pest or weed control at 320 g/ha (POLCO; Fallopia convolvulus, 504 h, 320 g/ha, read-out: Post-emergence effect against POLCO in %) was 80% and the pest or weed control at 20 g/ha (VIOTR; Viola tricolor, 504 h, 20 g/ha, read-out: Post-emergence effect against VIOTR in %) was 90%. For the same compound, the pest or weed control at 80 g/ha (VIOTR; Viola tricolor, 504 h, 80 g/ha, read-out: Post-emergence effect against VIOTR in %) was 90%, the pest or weed control at 320 g/ha (VIOTR; Viola tricolor, 504 h, 320 g/ha, read-out: Post-emergence effect against VIOTR in %) was 90% and the pest or weed control at 20 g/ha (PHBPU; Ipomoea purpurea, 504 h, 20 g/ha, read-out: Post-emergence effect against PHBPU in %) was 80%. It also gave a pest or weed control at 80 g/ha (PHBPU; Ipomoea purpurea, 504 h, 80 g/ha, read-out: Post-emergence effect against PHBPU in %) of 90%, a pest or weed control at 320 g/ha (PHBPU; Ipomoea purpurea, 504 h, 320 g/ha, read-out: Post-emergence effect against PHBPU in %) of 90% and a pest or weed control at 320 g/ha (LOLRI; Lolium rigidum, 504 h, 320 g/ha, read-out: Post-emergence effect against LOLRI in %) of 90%. The pest or weed control at 80 g/ha (MATIN; Tripleurospermum inodorum, 504 h, 80 g/ha, read-out: Post-emergence effect against MATIN in %) was 80%, the pest or weed control at 320 g/ha (MATIN; Tripleurospermum inodorum, 504 h, 320 g/ha, read-out: Post-emergence effect against MATIN in %) was 80% and the pest or weed control at 20 g/ha (ECHCG; Echinochloa crus-galli, 504 h, 20 g/ha, visual rating about 3 weeks after treatment, read-out: Post-emergence effect against ECHCG) was 90%. For the same compound, the pest or weed control at 80 g/ha (ECHCG; Echinochloa crus-galli, 504 h, 80 g/ha, read-out: Post-emergence effect against ECHCG in %) was 90%, the pest or weed control at 320 g/ha (ECHCG; Echinochloa crus-galli, 504 h, 320 g/ha, read-out: Post-emergence effect against ECHCG in %) was 90% and the plant injury at 20 g/ha (ZEAMX; Zea mays, 504 h, 20 g/ha, read-out: Post-emergence effect at 20 g/ha against ZEAMX in %) was 10%. The pest or weed control at 80 g/ha (ABUTH; Abutilon theophrasti, 504 h, 80 g/ha, read-out: Post-emergence effect against ABUTH) was 90%, the pest or weed control at 320 g/ha (ABUTH; Abutilon theophrasti, 504 h, 320 g/ha, read-out: Post-emergence effect against ABUTH) was 90% and the percent crop injury (phytotoxicity) to wheat, post-emergence at 20 g/ha (TRZAS) was 20%. The pest or weed control at 320 g/ha (AVEFA; Avena fatua, 504 h, 320 g/ha, read-out: Post-emergence effect against AVEFA) was 90%.
For CCOC(Oc1nn(-c2ccccc2F)c(-c2ccc(F)nc2)c1Cl)C(=O)OCCC(=O)OC (centres unmarked) [Example I-53], the “Post-emergence effect against DIGSA” value (DIGSA) was 90%, the “Post-emergence effect against VERPE in %” value (VERPE; 80 g/ha) was 80% and the “Post-emergence effect against VERPE in %” value (VERPE; 320 g/ha) was 90%. The “Post-emergence effect against KCHSC in %” value (KCHSC; 320 g/ha) was 80%, the “Post-emergence effect against SETVI in %” value (SETVI; 320 g/ha) was 90% and the “Post-emergence effect against AMARE” value (AMARE) was 80%. The “Post-emergence effect against ALOMY” value (ALOMY) was 100%, the “Post-emergence effect against POLCO in %” value (POLCO; 80 g/ha) was 80% and the “Post-emergence effect against POLCO in %” value (POLCO; 320 g/ha) was 80%. For the same compound, the “Post-emergence effect against VIOTR in %” value (VIOTR; 80 g/ha) was 80%, the “Post-emergence effect against VIOTR in %” value (VIOTR; 320 g/ha) was 80% and the “Post-emergence effect against PHBPU in %” value (PHBPU; 80 g/ha) was 90%. The “Post-emergence effect against PHBPU in %” value (PHBPU; 320 g/ha) was 90%, the “Post-emergence effect against LOLRI in %” value (LOLRI; 320 g/ha) was 90% and the “Post-emergence effect against MATIN in %” value (MATIN; 320 g/ha) was 80%. For the same compound, the “Post-emergence effect against ECHCG in %” value (ECHCG; 80 g/ha) was 90%, the “Post-emergence effect against ECHCG in %” value (ECHCG; 320 g/ha) was 90% and the “Post-emergence effect at 20 g/ha against ZEAMX in %” value (ZEAMX; 20 g/ha) was 0%. For the same compound, the “Post-emergence effect against ABUTH” value (ABUTH; 320 g/ha) was 80%, the “Post-emergence effect at 20 g/ha against TRZAS in %” value (TRZAS) was 0% and the “Post-emergence effect against AVEFA” value (AVEFA; 320 g/ha) was 90%.
With COC(Oc1nn(-c2ncccc2F)c(-c2cncc(F)c2)c1C1CC1)C(=O)O (centres unmarked) [Example I-85] the “Post-emergence effect against DIGSA” value (DIGSA) was 90%, the “Post-emergence effect against VERPE in %” value (VERPE; 320 g/ha) was 90% and the “Post-emergence effect against KCHSC in %” value (KCHSC; 80 g/ha) was 90%. For the same compound, the “Post-emergence effect against KCHSC in %” value (KCHSC; 320 g/ha) was 90%, the “Post-emergence effect against SETVI in %” value (SETVI; 80 g/ha) was 90% and the “Post-emergence effect against SETVI in %” value (SETVI; 320 g/ha) was 90%. The “Post-emergence effect against AMARE” value (AMARE) was 80%, the “Post-emergence effect against ALOMY” value (ALOMY) was 90% and the “Post-emergence effect against POLCO in %” value (POLCO; 80 g/ha) was 90%. The “Post-emergence effect against POLCO in %” value (POLCO; 320 g/ha) was 90%, the pest or weed control at 20 g/ha (POLCO; Fallopia convolvulus, 504 h, 20 g/ha, read-out: Post-emergence effect against POLCO in %) was 80% and the “Post-emergence effect against VIOTR in %” value (VIOTR; 80 g/ha) was 80%. The “Post-emergence effect against VIOTR in %” value (VIOTR; 320 g/ha) was 90%, the “Post-emergence effect against PHBPU in %” value (PHBPU; 20 g/ha) was 80% and the “Post-emergence effect against PHBPU in %” value (PHBPU; 80 g/ha) was 90%. The “Post-emergence effect against PHBPU in %” value (PHBPU; 320 g/ha) was 90%, the “Post-emergence effect against LOLRI in %” value (LOLRI; 80 g/ha) was 80% and the “Post-emergence effect against LOLRI in %” value (LOLRI; 320 g/ha) was 90%. For the same compound, the “Post-emergence effect against ECHCG” value (ECHCG; 20 g/ha, visual rating about 3 weeks after treatment) was 90%, the “Post-emergence effect against ECHCG in %” value (ECHCG; 80 g/ha) was 90% and the “Post-emergence effect against ECHCG in %” value (ECHCG; 320 g/ha) was 90%. For the same compound, the “Post-emergence effect at 20 g/ha against ZEAMX in %” value (ZEAMX; 20 g/ha) was 0%, the plant injury at 80 g/ha (ZEAMX; Zea mays, 504 h, 80 g/ha, read-out: Post-emergence effect at 80 g/ha against ZEAMX in %) was 20% and the “Post-emergence effect against ABUTH” value (ABUTH; 80 g/ha) was 80%. The “Post-emergence effect against ABUTH” value (ABUTH; 320 g/ha) was 90%, the percent crop injury (phytotoxicity) to wheat, post-emergence at 20 g/ha (TRZAS) was 0% and the “Post-emergence effect against AVEFA” value (AVEFA; 80 g/ha) was 90%. The “Post-emergence effect against AVEFA” value (AVEFA; 320 g/ha) was 90%.
